Test results from patent publication US8513232B2, “Substituted spirocyclic piperidine derivatives as histamine-3 (H3) receptor ligands” (Cephalon, Inc., priority 2008, dated 2013).
Like-named read-outs stand apart in the source and are kept apart here.

Legend:
[1] = molecular target: T1, rat histamine H3 receptor (Rattus norvegicus, UniProt Q9QYN8); assay: Rat H3 radioligand binding ([3H]-N-alpha-methylhistamine, SPA); settings: Rat H3 binding, Table B, read-out: rat H3 binding Ki
T1 construct: encoding the entire 445-amino-acid rat histamine H3 receptor; expressed in transfected cells; membrane preparation
T1 sequence (Q9QYN8 whole entry): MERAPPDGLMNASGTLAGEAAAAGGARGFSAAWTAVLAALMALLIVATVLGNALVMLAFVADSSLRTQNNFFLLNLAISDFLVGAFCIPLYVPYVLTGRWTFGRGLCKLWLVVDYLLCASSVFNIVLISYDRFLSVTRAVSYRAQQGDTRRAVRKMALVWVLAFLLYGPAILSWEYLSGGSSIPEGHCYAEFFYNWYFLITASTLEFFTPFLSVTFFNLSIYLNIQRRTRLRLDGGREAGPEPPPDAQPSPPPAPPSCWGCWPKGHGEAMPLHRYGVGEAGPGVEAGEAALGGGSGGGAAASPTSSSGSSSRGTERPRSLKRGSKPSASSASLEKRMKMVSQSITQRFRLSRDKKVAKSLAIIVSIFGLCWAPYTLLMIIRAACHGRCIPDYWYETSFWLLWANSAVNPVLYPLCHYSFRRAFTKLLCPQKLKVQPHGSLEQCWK
Method in brief: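 Membranes from CHO-A3 cells stably expressing full-length rat H3 receptor (10 μg protein/well) incubated 4 h at room temperature, protected from light, with ~1 nM [3H]-N-alpha-methylhistamine and compound (0.01 nM-30 μM) in 50 mM Tris HCl pH 7.4, 5 mM MgCl2, 0.1% BSA. Binding read by SPA; 10 μM clobenpropit defined non-specific binding.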

human H3 receptor = molecular target: T2, human H3 receptor (Homo sapiens, UniProt Q9Y5N1); assay: Human H3 radioligand binding ([3H]-N-alpha-methylhistamine, SPA); settings: Human H3 binding, Table B, Examples 136-362; read-out: hum H3 binding Ki
T2 construct: expressed in transfected cells
T2 sequence (Q9Y5N1 whole entry): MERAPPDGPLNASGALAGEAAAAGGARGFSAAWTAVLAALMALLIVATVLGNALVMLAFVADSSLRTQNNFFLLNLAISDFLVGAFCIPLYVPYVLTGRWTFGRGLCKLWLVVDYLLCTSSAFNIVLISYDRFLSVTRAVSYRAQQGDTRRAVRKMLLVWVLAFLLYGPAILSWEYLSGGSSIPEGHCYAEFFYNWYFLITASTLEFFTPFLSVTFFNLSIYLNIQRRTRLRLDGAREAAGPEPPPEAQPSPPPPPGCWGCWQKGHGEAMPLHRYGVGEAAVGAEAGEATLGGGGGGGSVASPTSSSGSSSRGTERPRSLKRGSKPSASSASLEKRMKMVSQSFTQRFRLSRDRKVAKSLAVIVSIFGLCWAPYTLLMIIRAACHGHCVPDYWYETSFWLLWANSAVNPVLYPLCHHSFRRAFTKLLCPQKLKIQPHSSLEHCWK
Method in brief: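 SPA competition binding on membranes from CHO cells stably expressing human H3 receptor (10 μg protein/well) with ~1 nM [3H]-N-alpha-methylhistamine and compound at 0.01 nM-30 μM. Incubation 4 h at room temperature in 50 mM Tris-HCl pH 7.4, 5 mM MgCl2, 0.1% BSA; non-specific binding defined with 10 μM clobenpropit.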

## CN1CCN(c2ccc3c(c2)OC2(CCN(C4CCC4)CC2)O3)C1=O [Example 151]
other
  melting point: 186 to 187 °C
[1]; given as numeric bound instead of class symbol
  Ki: > 0.3 µM
Human H3 receptor
  Ki: < 0.2 µM

## O=C(Nc1ccc2c(c1)COC1(CCN(C3CCC3)CC1)O2)c1ccccn1 [Example 152]
other
  melting point: 172 to 174 °C
[1]; Examples 136-362
  Ki: < 0.2 µM
Human H3 receptor
  Ki: < 0.2 µM

## N#Cc1cccc(C(=O)Nc2ccc3c(c2)COC2(CCN(C4CCC4)CC2)O3)c1 [Example 153]
other
  melting point: 212 to 215 °C
[1]; Examples 136-362
  Ki: < 0.2 µM
Human H3 receptor
  Ki: < 0.2 µM

## N#Cc1ccc(C(=O)Nc2ccc3c(c2)COC2(CCN(C4CCC4)CC2)O3)cc1 [Example 154]
other
  melting point: 206 to 208 °C
[1]; Examples 136-362
  Ki: < 0.2 µM
Human H3 receptor
  Ki: < 0.2 µM

## CC(C)(O)CNC(=O)c1ccc(-c2ccc3c(c2)COC2(CCN(C4CCC4)CC2)O3)cc1 [Example 155]
other
  melting point: 156 to 158 °C
[1]; Examples 136-362
  Ki: < 0.2 µM
Human H3 receptor
  Ki: < 0.2 µM

## CNC(=O)c1ccc(-c2ccc3c(c2)CCC2(CCN(C4CCC4)CC2)O3)cn1 [Example 156]
other
  melting point: 67 to 69 °C
[1]; Examples 136-362
  Ki: < 0.2 µM
Human H3 receptor
  Ki: < 0.2 µM

## N#Cc1ccc(NC(=O)Nc2ccc3c(c2)COC2(CCN(C4CCC4)CC2)O3)cc1 [Example 157]
other
  melting point: 170 to 172 °C
[1]; Examples 136-362
  Ki: < 0.2 µM
Human H3 receptor
  Ki: < 0.2 µM

## c1cc(-c2ccc3c(c2)CCC2(CCN(C4CCC4)CC2)O3)ccc1C1=NCCO1 [Example 158]
other
  melting point: 213 to 215 °C
[1]; Examples 136-362
  Ki: < 0.2 µM
Human H3 receptor
  Ki: < 0.2 µM

## O=C(c1ccccc1Nc1ccc2c(c1)COC1(CCN(C3CCC3)CC1)O2)N1CCOCC1 [Example 159]
other
  melting point: 60 to 63 °C
[1]; Examples 136-362
  Ki: 0.2 to 1 µM
Human H3 receptor
  Ki: < 0.2 µM

## CNC(=O)c1ccc(-c2ccc3c(c2)COC2(CCN(C4CCC4)CC2)O3)cn1 [Example 160]
other
  melting point: 208 to 210 °C
[1]; Examples 136-362
  Ki: < 0.2 µM
Human H3 receptor
  Ki: < 0.2 µM

## O=c1oc2ccccc2n1-c1ccc2c(n1)COC1(CCN(C3CCC3)CC1)O2 [Example 161]
other
  melting point: 67 to 70 °C
[1]; Examples 136-362
  Ki: 0.2 to 1 µM
Human H3 receptor
  Ki: < 0.2 µM

## O=C(Nc1ccccc1)Nc1ccc2c(c1)COC1(CCN(C3CCC3)CC1)O2 [Example 162]
other
  melting point: 229 to 231 °C
[1]; Examples 136-362
  Ki: < 0.2 µM
Human H3 receptor
  Ki: < 0.2 µM

## O=C(NCCO)c1ccc(-c2ccc3c(c2)COC2(CCN(C4CCC4)CC2)O3)cc1F [Example 163]
other
  melting point: 166 to 168 °C
[1]; Examples 136-362
  Ki: < 0.2 µM
Human H3 receptor
  Ki: < 0.2 µM

## CNC(=O)c1cnc(-c2ccc3c(c2)COC2(CCN(C4CCC4)CC2)O3)s1 [Example 164]
other
  melting point: 200 to 203 °C
[1]; Examples 136-362
  Ki: < 0.2 µM
Human H3 receptor
  Ki: < 0.2 µM

## O=C(Nc1ccc2c(c1)COC1(CCN(C3CCC3)CC1)O2)N1CCOCC1 [Example 165]
other
  melting point: 238 to 240 °C
[1]; Examples 136-362
  Ki: 0.2 to 1 µM
Human H3 receptor
  Ki: < 0.2 µM

## CN(C)C(=O)c1ccccc1Nc1ccc2c(c1)COC1(CCN(C3CCC3)CC1)O2 [Example 166]
other
  melting point: 50 to 53 °C
[1]; Examples 136-362
  Ki: < 0.2 µM
Human H3 receptor
  Ki: < 0.2 µM

## Cc1n[nH]c(C)c1-c1ccc2c(c1)CCC1(CCN(C3CCC3)CC1)O2 [Example 167]
other
  melting point: 86 to 88 °C
[1]; Examples 136-362
  Ki: < 0.2 µM
Human H3 receptor
  Ki: < 0.2 µM

## O=c1ccc(-c2ccc3c(c2)COC2(CCN(C4CCC4)CC2)O3)c[nH]1 [Example 168]
other
  melting point: 145 to 147 °C
[1]; Examples 136-362
  Ki: < 0.2 µM
Human H3 receptor
  Ki: < 0.2 µM

## CN(C)C(=O)c1ccc(Nc2ccc3c(c2)COC2(CCN(C4CCC4)CC2)O3)cc1 [Example 169]
other
  melting point: 66 to 74 °C
[1]; Examples 136-362
  Ki: < 0.2 µM
Human H3 receptor
  Ki: < 0.2 µM

## c1ccc(Nc2ccc3c(c2)OC2(CCN(C4CCC4)CC2)O3)cc1 [Example 170]
other
  melting point: 238 to 240 °C
[1]; Examples 136-362
  Ki: < 0.2 µM
Human H3 receptor
  Ki: < 0.2 µM

## Cc1nn(C)c(C)c1-c1ccc2c(c1)CCC1(CCN(C3CCC3)CC1)O2 [Example 171]
other
  melting point: 47 to 49 °C
[1]; Examples 136-362
  Ki: < 0.2 µM
Human H3 receptor
  Ki: < 0.2 µM

## O=C(c1ccc(Nc2ccc3c(c2)COC2(CCN(C4CCC4)CC2)O3)cc1)N1CCOCC1 [Example 172]
other
  melting point: 79 to 84 °C
[1]; Examples 136-362
  Ki: < 0.2 µM
Human H3 receptor
  Ki: < 0.2 µM

## O=C(c1ccc(-c2ccc3c(c2)COC2(CCN(C4CCC4)CC2)O3)cn1)N1CC[C@@H](O)C1 [Example 173]
other
  melting point: 100 to 101 °C
[1]; Examples 136-362
  Ki: < 0.2 µM
Human H3 receptor
  Ki: < 0.2 µM

## CNC(=O)N1CCN(c2ccc3c(c2)COC2(CCN(C4CCC4)CC2)O3)CC1 [Example 174]
other
  melting point: 59 to 62 °C
[1]; Examples 136-362
  Ki: < 0.2 µM
Human H3 receptor
  Ki: < 0.2 µM

## CNC(=O)c1ccc(-c2ccc3c(c2)CCOC2(CCN(C4CCC4)CC2)O3)cn1 [Example 175]
other
  melting point: 141 to 142.2 °C
[1]; Examples 136-362
  Ki: > 1 µM
Human H3 receptor
  Ki: 0.2 to 1 µM

## CNC(=O)c1ccc(-c2ccc3c(c2)COC2(CCN(C4CCC4)CC2)O3)s1 [Example 176]
other
  melting point: 215 to 219 °C
[1]; Examples 136-362
  Ki: < 0.2 µM
Human H3 receptor
  Ki: < 0.2 µM

## CNC(=O)c1cccc(-c2ccc3c(c2)CCOC2(CCN(C4CCC4)CC2)O3)c1 [Example 177]
other
  melting point: 100.2 to 102.5 °C
[1]; Examples 136-362
  Ki: > 1 µM
Human H3 receptor
  Ki: 0.2 to 1 µM

## O=C1N(c2ccncc2)CCN1c1ccc2c(c1)COC1(CCN(C3CCC3)CC1)O2 [Example 178]
other
  melting point: 185 to 189 °C
[1]; Examples 136-362
  Ki: < 0.2 µM
Human H3 receptor
  Ki: < 0.2 µM

## CNC(=O)c1ccc(-c2ccc3c(c2)CCOC2(CCN(C4CCC4)CC2)O3)cc1 [Example 180]
other
  melting point: 155.6 to 157.3 °C
[1]; Examples 136-362
  Ki: > 1 µM
Human H3 receptor
  Ki: 0.2 to 1 µM

## CNC(=O)NCc1ccc(-c2ccc3c(c2)COC2(CCN(C4CCC4)CC2)O3)cc1 [Example 181]
other
  melting point: 205 to 206.5 °C
[1]; Examples 136-362
  Ki: < 0.2 µM
Human H3 receptor
  Ki: < 0.2 µM

## O=C(c1ccc(-c2ccc3c(c2)CCC2(CCN(C4CCC4)CC2)O3)cc1)N1CC[C@H](O)C1 [Example 182]
other
  melting point: 193 to 195 °C
[1]; Examples 136-362
  Ki: < 0.2 µM
Human H3 receptor
  Ki: < 0.2 µM

## CCCn1cc(-c2ccc3c(c2)CCC2(CCN(C4CCC4)CC2)O3)cn1 [Example 183]
other
  melting point: 97 to 99 °C
[1]; Examples 136-362
  Ki: < 0.2 µM
Human H3 receptor
  Ki: < 0.2 µM

## O=C(Nc1ccc(Cl)cc1)Nc1ccc2c(c1)COC1(CCN(C3CCC3)CC1)O2 [Example 184]
other
  melting point: 201 to 203 °C
[1]; Examples 136-362
  Ki: 0.2 to 1 µM
Human H3 receptor
  Ki: < 0.2 µM

## O=C(Nc1cccc(Cl)c1)Nc1ccc2c(c1)COC1(CCN(C3CCC3)CC1)O2 [Example 186]
other
  melting point: 216 to 217 °C
[1]; Examples 136-362
  Ki: < 0.2 µM
Human H3 receptor
  Ki: < 0.2 µM

## CC(C)Cn1cc(-c2ccc3c(c2)CCC2(CCN(C4CCC4)CC2)O3)cn1 [Example 187]
other
  melting point: 106 to 108 °C
[1]; Examples 136-362
  Ki: < 0.2 µM
Human H3 receptor
  Ki: < 0.2 µM

## O=C(Nc1ccc2c(c1)CCC1(CCN(C3CCC3)CC1)O2)c1ccncc1 [Example 188]
other
  melting point: 65 to 67 °C
[1]; Examples 136-362
  Ki: < 0.2 µM
Human H3 receptor
  Ki: < 0.2 µM

## c1ccc(COc2ccc3c(c2)CCC2(CCN(C4CCC4)CC2)O3)cc1 [Example 189]
other
  melting point: 102 to 103 °C
[1]; Examples 136-362
  Ki: < 0.2 µM
Human H3 receptor
  Ki: < 0.2 µM

## OC1CC2(CCN(C3CCC3)CC2)Oc2ccc(OCc3ccccc3)cc21 (stereo not drawn) [Example 190]
other
  melting point: 69 to 71 °C
[1]; Examples 136-362
  Ki: 0.2 to 1 µM
Human H3 receptor
  Ki: < 0.2 µM

## CO[C@H]1CCN(C(=O)c2ccc(-c3ccc4c(c3)COC3(CCN(C5CCC5)CC3)O4)cc2)C1 [Example 191]
other
  melting point: 120 to 121 °C
[1]; Examples 136-362
  Ki: < 0.2 µM
Human H3 receptor
  Ki: < 0.2 µM

## O=C(c1ccc(-c2ccc3c(c2)COC2(CCN(C4CCC4)CC2)O3)cc1F)N1CC[C@H](O)C1 [Example 192]
other
  melting point: 99.5 to 100.5 °C
[1]; Examples 136-362
  Ki: < 0.2 µM
Human H3 receptor
  Ki: < 0.2 µM

## COCCNC(=O)c1ccc(-c2ccc3c(c2)CCC2(CCN(C4CCC4)CC2)O3)cc1 [Example 193]
other
  melting point: 158 to 160 °C
[1]; Examples 136-362
  Ki: < 0.2 µM
Human H3 receptor
  Ki: < 0.2 µM
